Test results: patent US10183015B2, “Heterocyclic compounds and methods of use” (Medivation Technologies LLC, priority 2015, dated 2019)
Several values for one entry are separate records, joined by “and”; a condition that tells them apart may be missing. Identical values can stand only once.

Assays:
SCD1 = test: Short-term Paigen-diet NASH mouse model: hepatic SCD1 gene expression (RT-qPCR); type: in vivo; settings: SCD1 relative expression to vehicle group, 21 days
Procedure: To investigate whether Compound #37 prevents the development of pathology associated with NASH and steatosis in an acute exploratory disease model, a study was conducted using a diet-induced acute liver steatosis model in mice. As described below, in this study, C57BL/6J mice were initiated on the Paigen diet and simultaneously treated with Compound #37 (5, 20, and 40 mg/kg/day) or vehicle control (20% HPβCD 10 mL/kg/day) by oral gavage for 21 days.
After acclimation, 8-week old male C57Bl/6J mice (Charles River) weighing about 25 g were randomized in 4 groups according their body weight and treated once daily around noon by oral gavage with vehicle, or Compound #37 at various for 21 days as follows: Group 1: vehicle-20% (2-hydroxypropyl)-β-cyclodextrin (HP-β-CD) (n=10); Group 2: Compound #37, 5 mg/kg (n=10) Group 3: Compound #37, 20 mg/kg (n=10) Group 4: Compound #37, 40 mg/kg (n=10). During the treatment period, body weight and food intake (measured over 24h) were measured 3 times per week and once a week, respectively. During the acclimation, all mice were fed a standard diet (Special Diets Services RM1 (E), product no. 801492) and tap water ad libitum. After the acclimation period, mice were fed until the end of the experiment with a 60% high fat Paigen diet (60 kcal % fat, 1.25% cholesterol, and 0.5% cholate; D11061901, Research Diet) and tap water ad libitum.
Gene expression analysis. Hepatic expression levels of genes involved in lipid metabolism (FAS, SREBP1, ACC1, SCD1), cholesterol metabolism (HMG-CoAR, LDLR), SREBP proteolysis (SCAP, INSIG1), ER stress (PERK), oxidative stress (NRF2), inflammation (MCP-1), and fibrosis (collagen 1α1) were quantified by RTqPCR. Expression level was normalized to 18S gene expression and relative expression to vehicle group was calculated with the […] method.

[1] = test system: diet-induced NASH obese insulin resistant mice; test: Diet-induced NASH (DIN) obese insulin-resistant mouse model: plasma ALT and AST; type: in vivo; settings: for ALAT area under the curve / ASAT area under the curve: 70-day treatment; for ALAT area under the curve / ASAT area under the curve / ALAT, days of treatment 0 / ASAT, days of treatment 0: 20 mg/kg; for ALAT, days of treatment 0 / ASAT, days of treatment 0: day 0 (baseline); for ALAT, days of treatment 14 / ASAT, days of treatment 14: day 14, 20 mg/kg; for ALAT, days of treatment 28 / ASAT, days of treatment 28: day 28, 20 mg/kg; for ALAT, days of treatment 42 / ASAT, days of treatment 42: day 42, 20 mg/kg
Procedure: Male C57Bl/6J mice (8 weeks old) were housed in enriched ventilated cages (31×12.5×12.7 cm) throughout the experimental phase. Animals' cages litters were changed at least once a week. Animal were housed 5 per cage on inverted 12-hour light cycle (at 09:00 am lights off), 22±2° C. and 55±10% relative humidity. The acclimation period was 20 days. During the acclimation period, all mice were fed a standard diet (RM1 (E) 801492, SDS) and tap water ad libitum. After the acclimation period, mice were fed with the DIN diet (60% fat, cholesterol enriched) and fructose-enriched tap water ad libitum until the end of the experiment.
At 6 weeks of diet, mice were 4-hour fasted (09:00 am to 1:00 pm) and blood (150 μl/EDTA) was collected at 01:00 pm by retro-orbital bleeding under isoflurane anesthesia. Mice were then allocated in 2 homogenous groups (n=12/group) according to their plasma levels of ALT (average levels: 685U/L), AST (average levels: 627U/L) and HOMA-IR index (average value: 4.7), into 2 homogenous groups (see values at day 0 in Tables 15A and 15B ALT/AST and Tables 16A and 16B for HOMA-IR). Mice were then treated once daily by oral gavage with vehicle (Group 1) or Compound #37 at 20 mg/kg (Group 2) for 70 days.
To investigate whether Compound #37 improves pre-existing steatosis/NASH pathology, a study was conducted using a 16-week diet-induced NASH mouse model. In this model, mice develop steatosis that progresses with inflammation and fibrosis that mimic many of the observed pathologies in human nonalcoholic fatty liver disease (NAFLD) and NASH (Hebbard & George, 2010). For 6 weeks, mice were fed a high-fat, high-cholesterol diet and provided drinking water containing fructose to induce liver pathology (Charlton et al, 2011). After 6 weeks, the mice were divided into 2 groups with similar mean aspartate aminotransferase (AST) and alanine aminotransferase (ALT) values (n=12 mice), although it should be noted that AST and ALT concentrations within both groups were higher and with greater variability than anticipated (e.g., mean ALT 677 U/L [SD, 401 U/L] in the vehicle control group and 693 U/L [SD, 365 U/L] in the Compound #37 group). After the animals were divided into 2 groups, the diet was continued for 10 additional weeks during which time 1 group received vehicle and the other was treated with 20 mg/kg/day Compound #37.

CC(C)Cc1cc(-c2nc(-c3ccc(NS(=O)(=O)C(F)(F)F)cc3Cl)cs2)ccn1 [Compound 37, N-(3-chloro-4-(2-(2-isobutylpyridin-4-yl)thiazol-4-yl)phenyl)-1,1,1-trifluoromethanesulfonamide]
2DDct (SCD1; 5 mg/kg, group mean): 1.05
2DDct (SCD1; 5 mg/kg, individual animals, 5 mg/kg): 2.96 and 0.99 and 0.66 and 2.02 and 0.77 and 0.22 and 0.93 and 0.76 and 0.6 and 0.59
2DDct (SCD1; 20 mg/kg, group mean): 1.18
2DDct (SCD1; 20 mg/kg, individual animals, 20 mg/kg): 0.98 and 0.47 (2×) and 0.88 and 2.28 and 2
hepatotoxicity (transaminase concentrations) ([1]; 20 mg/kg/day, 10 weeks): No evidence of hepatotoxicity
ALAT area under the curve ([1]; plasma, group mean, n 11): 12252 U/L · day
ASAT area under the curve ([1]; plasma, group mean, n 11): 10763 U/L · day
ALAT area under the curve ([1]; plasma, individual animals): 18578 U/L · day and 17206 U/L · day and 11865 U/L · day and 9163 U/L · day and 5418 U/L · day and 9331 U/L · day and 17759 U/L · day and 11949 U/L · day and 16954 U/L · day and 8862 U/L · day and 7686 U/L · day
ASAT area under the curve ([1]; plasma, individual animals): 18662 U/L · day and 15001 U/L · day and 8456 U/L · day and 8141 U/L · day and 5607 U/L · day and 6573 U/L · day and 11550 U/L · day and 10388 U/L · day and 13167 U/L · day and 11690 U/L · day and 9163 U/L · day
ALAT, days of treatment 0 ([1]; plasma, group mean, n 12): 693 U/L
ASAT, days of treatment 0 ([1]; plasma, group mean, n 12): 615 U/L
ALAT, days of treatment 0 ([1]; plasma, individual animals): 1520 U/L and 698 U/L and 955 U/L and 551 U/L and 226 U/L and 365 U/L and 625 U/L and 563 U/L and 830 U/L and 662 U/L and 260 U/L and 1065 U/L
ASAT, days of treatment 0 ([1]; plasma, individual animals): 1440 U/L and 875 U/L and 584 U/L and 435 U/L and 217 U/L and 269 U/L and 464 U/L and 500 U/L and 725 U/L and 730 U/L and 283 U/L and 860 U/L
ALAT, days of treatment 14 ([1]; plasma, group mean, n 12): 255 U/L
ASAT, days of treatment 14 ([1]; plasma, group mean, n 12): 249 U/L
ALAT, days of treatment 14 ([1]; plasma, individual animals): 250 U/L and 252 U/L (2×) and 218 U/L and 200 U/L and 92 U/L and 198 U/L and 256 U/L and 410 U/L and 690 U/L and 134 U/L and 106 U/L
ASAT, days of treatment 14 ([1]; plasma, individual animals): 296 U/L and 268 U/L and 206 U/L and 228 U/L and 124 U/L and 150 U/L and 190 U/L and 288 U/L and 440 U/L and 248 U/L and 428 U/L and 126 U/L
ALAT, days of treatment 28 ([1]; plasma, group mean, n 12): 146 U/L
ASAT, days of treatment 28 ([1]; plasma, group mean, n 12): 146 U/L
ALAT, days of treatment 28 ([1]; plasma, individual animals): 176 U/L and 118 U/L and 96 U/L and 68 U/L and 58 U/L and 316 U/L and 226 U/L and 154 U/L and 160 U/L and 208 U/L and 38 U/L and 136 U/L
ASAT, days of treatment 28 ([1]; plasma, individual animals): 238 U/L and 98 U/L and 84 U/L and 76 U/L and 80 U/L and 168 U/L and 140 U/L and 102 U/L and 222 U/L and 288 U/L and 68 U/L and 190 U/L
ALAT, days of treatment 42 ([1]; plasma, group mean, n 12): 143 U/L
ASAT, days of treatment 42 ([1]; plasma, group mean, n 12): 136 U/L
ALAT, days of treatment 42 ([1]; plasma, individual animals): 68 U/L and 280 U/L and 52 U/L and 50 U/L (2×) and 136 U/L and 58 U/L and 168 U/L and 92 U/L and 66 U/L and 370 U/L and 322 U/L
ASAT, days of treatment 42 ([1]; plasma, individual animals): 88 U/L and 132 U/L and 80 U/L and 110 U/L and 140 U/L and 96 U/L and 200 U/L and 106 U/L and 130 U/L and 76 U/L and 174 U/L and 296 U/L
ALAT, days of treatment 56 ([1]; plasma, day 56, 20 mg/kg, group mean, n 11): 136 U/L
